The subject of assay [1] is Hedgehog pathway activation (GLi-luciferase reporter) in Shh Light II reporter cells. The experiment in a line: Hedgehog pathway activation on Shh Light II reporter cells measured by luciferase activity. The assay is classed as cell-based. An outline of the steps: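 Shh Light II reporter cells carrying a hedgehog-responsive GLi-luciferase reporter were stimulated either with 500 nM SAG, a direct Smoothened agonist, or with conditioned media containing human Sonic Hedgehog (hShh). Test compounds were evaluated for blocking this pathway activation, quantified by luciferase activity. Cell viability was monitored in parallel with the Celltiter-Blue® assay.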

Assay [2] deals with Hedgehog pathway activation on 10T1/2/Smo#3 cells (C3H10T1/2 cells transfected with human Smoothened receptor). Briefly: Hedgehog pathway activation on 10T1/2/Smo#3 cells measured by ALP activity. The assay is classed as cell-based. An outline of the steps:
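C3H10T1/2 cells stably expressing human Smoothened were activated with hShh-conditioned medium (10-20%) or 500 nM SAG, with test compounds present. Pathway block read as inhibited ALP activity (4-methylumbelliferyl phosphate fluorescence); viability checked by CellTiter-Blue. IC50 values reported.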

Setting [3] is: hShh activation, read-out: Shh (IC50, inhibition of Hedgehog pathway activation).
Setting [4] is: 10T1/2/Smo#3 cells, measured by ALP activity, read-out: ALP (IC50, inhibition of Hedgehog pathway activation).
Where [5] appears, read: Mus musculus, Shh Light II, hShh activation, read-out: Shh (IC50, inhibition of Hedgehog pathway activation).
[6] abbreviates: Mus musculus, C3H 10T1/2, 10T1/2/Smo#3 cells, measured by ALP activity, read-out: ALP (IC50, inhibition of Hedgehog pathway activation).
The mark [7] stands for this setting: Mus musculus, Shh Light II, SAG activation (500 nM SAG), read-out: Shh Light II luciferase activity (SAG activation).
Setting [8] is: Mus musculus, Shh Light II, hShh activation, read-out: Shh Light II luciferase activity (hShh activation).
The mark [9] stands for this setting: Mus musculus, C3H 10T1/2, 10T1/2/Smo#3 cells, hShh activation, ALP activity, read-out: 10T1/2/Smo#3 ALP activity (hShh Activation).

The structures appear in SMILES notation. Read-outs that look alike come from different tables or passages of the source. Some results are limits rather than exact numbers.

On to `CC(C)(C)C(=O)Nc1cc(-c2cn3nc(N4CCC(O)C4)ccc3n2)ccc1C(F)(F)F` (stereo not shown) [Example 467, N-(5-(6-(3-hydroxypyrrolidin-1-yl)imidazo[1,2-b]pyridazin-2-yl)-2-(trifluoromethyl)phenyl)pivalamide], for which the IC50 came out at 115 nM in assay [1] (setting [3]) and 114 nM in assay [2] (setting [4]).
Regarding `Cc1ccc(-c2cn3nc(N4CCC(O)C4)ccc3n2)cc1NC(=O)C(C)(C)C` (stereo not shown) [Example 468, N-(5-(6-(3-hydroxypyrrolidin-1-yl)imidazo[1,2-b]pyridazin-2-yl)-2-methylphenyl)pivalamide], the results for the IC50 in assay [1] (setting [5]) and in assay [2] (setting [6]) were 44 nM and 23 nM, respectively.
Consider `CN(C)[C@@H]1CCN(c2ccc3nc(-c4ccc(C(F)(F)F)c(NC(=O)C(C)(C)C)c4)cn3n2)C1` [Example 470, (R)-N-(5-(6-(3-(dimethylamino)pyrrolidin-1-yl)imidazo[1,2-b]pyridazin-2-yl)-2-(trifluoromethyl)phenyl)pivalamide], for which the IC50 in assay [1] (setting [5]) came to 65 nM; in assay [2] (setting [6]) it was 28 nM.
Regarding `CC(C)(C)C(=O)Nc1cc(-c2cn3nc(N4CCCC(O)C4)ccc3n2)ccc1C(F)(F)F` (stereo not shown) [Example 471, N-(5-(6-(3-hydroxypiperidin-1-yl)imidazo[1,2-b]pyridazin-2-yl)-2-(trifluoromethyl)phenyl)pivalamide], the values for the IC50 in assay [1] (setting [3]) and in assay [2] (setting [6]) were 151 nM and 445 nM, respectively.
With `Cc1ccc(-c2cn3nc(N4CC[C@@H](N(C)C)C4)ccc3n2)cc1NC(=O)C(C)(C)C` [Example 472, (R)-N-(5-(6-(3-(dimethylamino)pyrrolidin-1-yl)imidazo[1,2-b]pyridazin-2-yl)-2-methylphenyl)pivalamide], the IC50 in assay [1] (setting [5]) came out at 84 nM; in assay [2] (setting [6]), 110 nM.
For `CNC1CCN(c2ccc3nc(-c4ccc(C)c(NC(=O)C(C)(C)C)c4)cn3n2)C1` (stereo not shown) [Example 473, N-(2-methyl-5-(6-(3-(methylamino)pyrrolidin-1-yl)imidazo[1,2-b]pyridazin-2-yl)phenyl)pivalamide], the results for the IC50 in assay [1] (setting [3]) and in assay [2] (setting [4]) were 77 nM and 93 nM, respectively.
For the compound `CCNC1CCN(c2ccc3nc(-c4ccc(C)c(NC(=O)C(C)(C)C)c4)cn3n2)C1` (stereo not shown) [Example 474, N-(5-(6-(3-(ethylamino)pyrrolidin-1-yl)imidazo[1,2-b]pyridazin-2-yl)-2-methylphenyl)pivalamide], the results for the IC50 in assay [1] (setting [5]) and in assay [2] (setting [6]) were 31 nM and 34 nM, respectively.
The matching figures for `CCOC(=O)COc1ccc(C(F)(F)F)c(-c2ccc3nc(-c4ccc(C)c(NC(=O)C(C)(C)C)c4)cn3n2)c1` [Example 477, ethyl 2-(3-(2-(4-methyl-3-pivalamidophenyl)imidazo[1,2-b]pyridazin-6-yl)-4-(trifluoromethyl)phenoxy)acetate]: 247 nM and 521 nM.
The matching figures for `Cc1ccc(-c2cn3nc(-c4ccc(C#N)cc4C(F)(F)F)ccc3n2)cc1NC(=O)C(C)(C)C` [Example 478, N-(5-(6-(4-cyano-2-(trifluoromethyl)phenyl)imidazo[1,2-b]pyridazin-2-yl)-2-methylphenyl)pivalamide]: 80 nM and 327 nM.
As to `Cc1ccc(-c2cn3nc(-c4ccc(C(=O)O)cc4C(F)(F)F)ccc3n2)cc1NC(=O)C(C)(C)C` [Example 479, 4-(2-(4-methyl-3-pivalamidophenyl)imidazo[1,2-b]pyridazin-6-yl)-3-(trifluoromethyl)benzoic acid], the IC50 in assay [1] (setting [7]) was under 300 nM; in assay [1] (setting [5]), 6 nM; in assay [1] (setting [8]), under 300 nM; in assay [2] (setting [9]), under 300 nM; in assay [2] (setting [6]) it was 86 nM.
`Cc1ccc(-c2cn3nc(-c4cccnc4C(F)(F)F)ccc3n2)cc1C(=O)NC(C)(C)C` [Example 483, N-tert-butyl-2-methyl-5-(6-(2-(trifluoromethyl)pyridin-3-yl)imidazo[1,2-b]pyridazin-2-yl)benzamide]: the IC50 in assay [1] (setting [7]) was 300 to 3000 nM; in assay [1] (setting [5]) it was 72 nM; in assay [1] (setting [8]), under 300 nM; in assay [2] (setting [9]), under 300 nM; in assay [2] (setting [6]), 114 nM.

The record behind these values is patent publication US8871767B2, “2-arylimidazo[1,2-B]pyridazine, 2-phenylimidazo[1,2-A]pyridine, and 2-phenylimidazo[1,2-A]pyrazine derivatives” (Hengrui (USA) Ltd., priority 2010, dated 2014).
